Values of other authors, collected in patent US20260315441A1, “FORMULATIONS OF PENICILLIN AND METHODS FOR STABILIZING PENICILLIN” (VETERINARY PHARMACY CORPORATION, priority 2023, published 2026).
Read-outs that look alike come from different tables or passages of the source.

Compound | pH of highest stability (aqueous solution) | degradation of penicillin G (at 5° C.) [%/hour] | degradation of penicillin G (at 37° C.) [%/hour] | minimum degradation pH point (aqueous solution) [pH] | stability outside of the pH range of 5-8 (pH outside 5-8)
CC1(C)S[C@@H]2[C@H](NC(=O)Cc3ccccc3)C(=O)N2[C@H]1C(=O)O [Penicillin G, benzylpenicillin] | 5-8 pH | 1.92 | 3.29 | – | –
CC1(C)S[C@@H]2[C@H](NC(=O)Cc3ccccc3)C(=O)N2[C@H]1C(=O)O [Penicillin] | – | – | – | 6.5 | very unstable
